Test results reported in US12622910B2, “Inhibitors of Bruton's tyrosine kinase and methods of their use” (Janssen Pharmaceutica NV, priority 2021, dated 2026).

Tests used:
BTK = molecular target: T1, BTK (Rattus norvegicus, UniProt Q5S255); test: Rat in vivo BTK target engagement (occupancy ELISA in blood); set-up: species or system female Wistar rat; conditions: read-out: BTK target occupancy after 8 and 24 hours
T1 construct: Cell lysates were prepared from the blood samples using cell lysis buffer; from tissue; host or cells: blood of female Wistar rats (cell lysates)
T1 sequence (Q5S255 1-660): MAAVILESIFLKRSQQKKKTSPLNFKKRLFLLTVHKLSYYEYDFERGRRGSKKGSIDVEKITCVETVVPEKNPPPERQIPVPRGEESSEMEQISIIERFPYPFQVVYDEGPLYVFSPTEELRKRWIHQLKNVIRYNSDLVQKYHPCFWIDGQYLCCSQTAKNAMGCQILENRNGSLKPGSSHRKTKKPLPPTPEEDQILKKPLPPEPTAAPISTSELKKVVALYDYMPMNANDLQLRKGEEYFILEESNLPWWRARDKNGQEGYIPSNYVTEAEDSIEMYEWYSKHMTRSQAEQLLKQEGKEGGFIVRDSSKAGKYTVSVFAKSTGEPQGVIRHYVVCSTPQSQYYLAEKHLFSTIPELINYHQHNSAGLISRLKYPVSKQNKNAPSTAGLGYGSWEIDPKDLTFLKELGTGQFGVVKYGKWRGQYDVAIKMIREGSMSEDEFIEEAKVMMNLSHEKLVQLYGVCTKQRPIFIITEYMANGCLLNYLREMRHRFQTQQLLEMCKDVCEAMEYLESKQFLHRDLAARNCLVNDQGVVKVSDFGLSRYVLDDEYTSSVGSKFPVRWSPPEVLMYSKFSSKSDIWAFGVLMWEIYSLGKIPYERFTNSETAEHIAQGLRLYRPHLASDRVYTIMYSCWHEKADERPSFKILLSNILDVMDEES
Experimental: In Vivo BTK Engagement—BTK receptor occupancy and plasma concentrations of the Compound of Formula (III) increased in a dose-dependent manner following a single oral dose in rat (FIG. 15). Doses of 2 mg/kg or higher consistently achieved sustained target occupancy after 8 and 24 hours (>75% following a 2 mg/kg dose, ≥88% following a 3 mg/kg dose, and ≥99% following a 10 mg/kg dose). Target occupancy was maintained at 24 h even after parent drug plasma levels decreased, indicating persistent BTK occupancy, a hallmark of the covalent mechanism. Considering that 70% to 80% BTK target engagement for 7 to 8 hours in a chronic dosing regimen is associated with anti-inflammatory activity in rodent efficacy models, 75% target engagement at 7.5 hours was identified as the desired level of target engagement.
BTK Occupancy PK/PD Model—Rat in vivo target engagement—Two studies were conducted in which the compound of Formula (III) formulated in 20% HPCD, was administered orally to female Wistar rats. In study 1, compound of Formula (III) was evaluated at oral doses of 0.3, 1, 3 and 10 mg/kg; in study 2, compound of Formula (III) was evaluated at oral doses of 0.1, 0.3, 1, 2 and 3 mg/kg. (n=4/group for both studies). In both experiments, at assigned time points postdose (0.5, 4, 8 and 24 hr), animals were anesthetized and approximately 140 μL of blood was obtained by retro-orbital bleeding into heparinized tubes. These samples were split into two aliquots, with one aliquot used to measure compound levels by liquid chromatography mass spectrophotometry method and the other aliquot to assess BTK occupancy by a target-site occupancy ELISA.
Cell lysates were prepared from the blood samples using cell lysis buffer (BD Pharmingen™, BD Biosciences). Free BTK protein in each sample is tagged by the addition a biotinylated probe (1 μL of a 25 μM working solution per sample, final concentration 250 nM), which is then captured on the surface of a streptavidin coated microtiter plate and detected by ELISA using an antibody specific for BTK (BD Transduction). […]

PXR = test: Puracyp DPX2 luciferase-reporter cell line (CYP3A4 induction); type: in vitro ADME
Experimental: To assess the potential of the compound of Formula (III) to be a time-dependent inhibitor of CYP3A, human liver microsomes were preincubated for 30 minutes at 37° C. with the compound of Formula (III) at concentrations up to 10 μM, and CYP3A activity was measured using testosterone as a probe substrate. […] The potential of the compound of Formula (III) to induce CYPs at the transcriptional level was assessed using Puracyp™ DPX2 (CYP3A4, PXR) and DRE (CYP1A2, AhR) luciferase-reporter cell lines; rifampicin and omeprazole were used as positive controls for CYP3A and CYP1A induction, respectively. The activation by the compound of Formula (III) was <20% of positive control values for PXR (6.6% and 14.1% at 1 and 10 μM change, respectively) or AhR (0.1% and 0.3% change, respectively). […] Potential involvement of various CYP isoforms in the metabolism of the compound of Formula (III) was investigated by measuring the parent compound remaining after 1-hour incubation with the compound of Formula (III) (1 μM) with recombinant CYPs (rCYPs) at 100 pmol P450/mL in the presence of 1 mM NADPH at 37° C. The only isozyme that produced notable the compound of Formula (III) turnover with <1% parent remaining after 1-hour incubation was CYP3A4 (FIG. 24). […]

Compound: C=CC(=O)N[C@H]1CCC[C@H]1NC(=O)c1sc2nccc3c2c1NC(=O)N3c1cnc(CC(C)C)cc1C (atropisomer, axis not shown) [compound of Formula (III), N-((1R,2S)-2-Acrylamidocyclopentyl)-5-(S)-(6-isobutyl-4-methylpyridin-3-yl)-4-oxo-4,5-dihydro-3H-1-thia-3,5,8-triazaacenaphthylene-2-carboxamide]
- receptor occupancy at 2 mg/kg (BTK; single oral 2 mg/kg): > 75%
- receptor occupancy at 3 mg/kg (BTK; single oral 3 mg/kg): ≥ 88%
- receptor occupancy at 10 mg/kg (BTK; single oral 10 mg/kg): ≥ 99%
- PXR activation, % of positive control (rifampicin) (PXR; 1 μM): 6.6%
- PXR activation, % of positive control (rifampicin) (PXR; 10 μM): 14.1%
